Patent publication US20160143971A1, “COMBINATION THERAPY FOR PROSTATE CANCER USING BOTANICAL COMPOSITIONS AND DOCETAXEL” (GENYOUS BIOMED INTERNATIONAL, priority 2013, published 2016)

Legend:
[1] = tested on: LNCaP (androgen-sensitive) human prostate cancer tumors SRCX; test: Growth of LNCaP prostate cancer tumors SRCX in mice; type: in vivo; conditions: 3 weeks
Method: LNCaP prostate cancer was treated for 3 weeks according to the following regimen.

[2] = cited from earlier work
[3] = tested on: androgen-independent metastatic prostate cancer; conditions: TAX 327 phase III study, patients; cited from earlier work
PSA = conditions: cited from earlier work
[4] = tested on: human prostate cancer cells in culture; conditions: cited from earlier work
[5] = tested on: human prostate cancer cells in mouse xenografts; conditions: cited from earlier work

SMILES	inhibition of growth of LNCaP tumors ([1]; Aneustat 1652 mg/kg oral gavage QD x 21, Taxotere 10 mg/kg IP d=1, 8, 15, P<0.01)	efficacy in tumor size reduction (FIG. 1) ([1]; Aneustat 1652 mg/kg oral, Taxotere 10 mg/kg IP)	water solubility compared with paclitaxel [2]	overall response rate [3] [%]	PSA expression (PSA)	anti-proliferative effect [4]	anti-proliferative effect [5]
CC(=O)O[C@@]12CO[C@@H]1C[C@H](O)[C@@]1(C)C(=O)[C@H](O)C3=C(C)[C@@H](OC(=O)[C@H](O)[C@@H](NC(=O)OC(C)(C)C)c4ccccc4)C[C@@](O)([C@@H](OC(=O)c4ccccc4)[C@H]21)C3(C)C [Taxotere®, docetaxel]	significantly inhibited growth	somewhat more effective	more water soluble than paclitaxel	12	–	–	–
COc1cc(CNC(=O)CCCC/C=C/C(C)C)ccc1O [capsaicin]	–	–	–	–	down-regulates PSA expression	profound anti-proliferative effect	profound anti-proliferative effect
O=C1c2c(O)ccc(O)c2C(=O)c2c(NCCNCCO)ccc(NCCNCCO)c21 [mitoxantrone]	–	–	–	7	–	–	–
